These are literature values, as cited in patent publication US20220073443A1, “CANNABINOID FORMULATIONS AND METHODS OF MAKING SAME” (BOTANECO INC., priority 2018, published 2022).

Each structure is given as a SMILES string.

The conditions of the series: consumed by smoking marihuana; average.

With `CCCCCc1cc(O)c2c(c1)OC(C)(C)[C@@H]1CCC(C)=C[C@@H]21` [Δ^9-THC, Δ^9-tetrahydrocannabinol], the “bioavailability of pulmonary-delivered Δ9-THC” value was about 30%.
